ChEMBL document CHEMBL1201862, “PubChem BioAssay data set” (2004)
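The compound was tested at five concentrations on cells cultured in 96-well plates, with a 48-hour exposure period. At the GI50, growth is halved.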 Activity calls are given as the source filed them. Cut-off read from the data, not from the text of the source: active = GI50 up to about 1.1 µM and inactive = higher.

Experiments:
Assay in all cases: NCI tumour cell line growth inhibition, 48 h
786-0 = tested on: 786-0
A498 = tested on: A498
A549 = tested on: A549
COLO 205 = tested on: COLO 205
DU-145 = tested on: DU-145
HCC 2998 = tested on: HCC 2998
HCT-116 = tested on: HCT-116
HCT-15 = tested on: HCT-15
HL-60 = tested on: HL-60
HOP-62 = tested on: HOP-62
HOP-92 = tested on: HOP-92
IGROV-1 = tested on: IGROV-1
KM12 = tested on: KM12
MCF7 = tested on: MCF7
MOLT-4 = tested on: MOLT-4
NCI-H226 = tested on: NCI-H226
NCI-H460 = tested on: NCI-H460
NCI/ADR-RES = tested on: NCI/ADR-RES
PC-3 = tested on: PC-3
SK-MEL-2 = tested on: SK-MEL-2
SK-MEL-5 = tested on: SK-MEL-5
SK-OV-3 = tested on: SK-OV-3
SNB-19 = tested on: SNB-19
SNB-75 = tested on: SNB-75
SW-620 = tested on: SW-620
TK-10 = tested on: TK-10
U-251 = tested on: U-251
UACC-62 = tested on: UACC-62
UO-31 = tested on: UO-31
ACHN = tested on: ACHN
CAKI-1 = tested on: CAKI-1
CCRF-CEM = tested on: CCRF-CEM
EKVX = tested on: EKVX
HT-29 = tested on: HT-29
Hs-578T = tested on: Hs-578T
K562 = tested on: K562
LOX IMVI = tested on: LOX IMVI
M14 = tested on: M14
MDA-MB-231 = tested on: MDA-MB-231
MDA-MB-435 = tested on: MDA-MB-435
NCI-H23 = tested on: NCI-H23
OVCAR-4 = tested on: OVCAR-4
OVCAR-8 = tested on: OVCAR-8
RPMI-8226 = tested on: RPMI-8226
RXF 393 = tested on: RXF 393
SF-268 = tested on: SF-268
SF-295 = tested on: SF-295
SF-539 = tested on: SF-539
SK-MEL-28 = tested on: SK-MEL-28
SR = tested on: SR
T47D = tested on: T47D
UACC-257 = tested on: UACC-257
MDA-N = tested on: MDA-N
Malme-3M = tested on: Malme-3M
SN12C = tested on: SN12C

`CN1C/C(=C\c2ccccc2[N+](=O)[O-])C(=O)/C(=C/c2ccccc2[N+](=O)[O-])C1` was tested, and the GI50 (786-0) was 0.192 µM (active), the GI50 (A498) was 1.93 µM (inactive) and the GI50 (A549) was 3.43 µM (inactive). For the same compound, the GI50 (COLO 205) was 0.164 µM (active), the GI50 (DU-145) was 1.51 µM (inactive) and the GI50 (HCC 2998) was 1.45 µM (inactive). For the same compound, the GI50 (HCT-116) was 0.215 µM (active), the GI50 (HCT-15) was 0.251 µM and the GI50 (HL-60) was 0.0796 µM (active). The GI50 (HOP-62) was 2.95 µM (inactive), the GI50 (HOP-92) was 1.09 µM (active) and the GI50 (IGROV-1) was 0.442 µM (active). The GI50 (KM12) was 1.24 µM (inactive), the GI50 (MCF7) was 0.408 µM (active) and the GI50 (MOLT-4) was 0.192 µM (active). The GI50 (NCI-H226) was 3.09 µM (inactive), the GI50 (NCI-H460) was 2.57 µM (inactive) and the GI50 (NCI/ADR-RES) was 1.55 µM (inactive). For the same compound, the GI50 (PC-3) was 1.14 µM (inactive), the GI50 (SK-MEL-2) was 2.09 µM (inactive) and the GI50 (SK-MEL-5) was 1.32 µM (inactive). For the same compound, the GI50 (SK-OV-3) was 2.75 µM (inactive), the GI50 (SNB-19) was 6.1 µM (inactive) and the GI50 (SNB-75) was 1.86 µM (inactive). The GI50 (SW-620) was 0.173 µM (active), the GI50 (TK-10) was 0.893 µM (active) and the GI50 (U-251) was 1.7 µM (inactive). The GI50 (UACC-62) was 1.31 µM (inactive) and the GI50 (UO-31) was 0.373 µM (active).
`CCOC(=O)C1=C(Nc2cccc(OC)c2)OCC1=O` was tested, and the GI50 (786-0) was > 100 µM (inactive), the GI50 (A498) was 27.7 µM (inactive) and the GI50 (ACHN) was > 100 µM (inactive). The GI50 (CAKI-1) was > 100 µM (inactive), the GI50 (CCRF-CEM) was > 100 µM (inactive) and the GI50 (COLO 205) was > 100 µM (inactive). For the same compound, the GI50 (DU-145) was 68.7 µM (inactive), the GI50 (EKVX) was > 100 µM (inactive) and the GI50 (HCC 2998) was > 100 µM (inactive). For the same compound, the GI50 (HCT-116) was > 100 µM (inactive), the GI50 (HCT-15) was over 100 µM and the GI50 (HL-60) was > 100 µM (inactive). For the same compound, the GI50 (HOP-62) was > 100 µM (inactive), the GI50 (HOP-92) was > 100 µM (inactive) and the GI50 (HT-29) was > 100 µM (inactive). The GI50 (Hs-578T) was > 100 µM (inactive), the GI50 (IGROV-1) was > 100 µM (inactive) and the GI50 (K562) was > 100 µM (inactive). For the same compound, the GI50 (KM12) was > 100 µM (inactive), the GI50 (LOX IMVI) was > 100 µM (inactive) and the GI50 (M14) was > 100 µM (inactive). The GI50 (MCF7) was > 100 µM (inactive), the GI50 (MDA-MB-231) was > 100 µM (inactive) and the GI50 (MDA-MB-435) was > 100 µM (inactive). For the same compound, the GI50 (MOLT-4) was > 100 µM (inactive), the GI50 (NCI-H226) was > 100 µM (inactive) and the GI50 (NCI-H23) was > 100 µM (inactive). The GI50 (NCI-H460) was > 100 µM (inactive), the GI50 (NCI/ADR-RES) was > 100 µM (inactive) and the GI50 (OVCAR-4) was > 100 µM (inactive). The GI50 (OVCAR-8) was > 100 µM (inactive), the GI50 (PC-3) was > 100 µM (inactive) and the GI50 (RPMI-8226) was > 100 µM (inactive). For the same compound, the GI50 (RXF 393) was > 100 µM (inactive), the GI50 (SF-268) was > 100 µM (inactive) and the GI50 (SF-295) was > 100 µM (inactive). For the same compound, the GI50 (SF-539) was > 100 µM (inactive), the GI50 (SK-MEL-28) was > 100 µM (inactive) and the GI50 (SK-MEL-2) was > 100 µM (inactive). The GI50 (SK-MEL-5) was > 100 µM (inactive), the GI50 (SK-OV-3) was > 100 µM (inactive) and the GI50 (SNB-19) was > 100 µM (inactive). The GI50 (SNB-75) was > 100 µM (inactive), the GI50 (SR) was > 100 µM (inactive) and the GI50 (SW-620) was > 100 µM (inactive). The GI50 (T47D) was > 100 µM (inactive), the GI50 (TK-10) was > 100 µM (inactive) and the GI50 (U-251) was > 100 µM (inactive). The GI50 (UACC-257) was > 100 µM (inactive), the GI50 (UACC-62) was > 100 µM (inactive) and the GI50 (UO-31) was > 100 µM (inactive).
For `COc1ccc(C2=C(OC(=O)N(C)C)c3cccn3-c3cc(C(F)(F)F)ccc3S2)cc1`, the GI50 (786-0) was > 10 µM (inactive), the GI50 (A549) was > 10 µM (inactive) and the GI50 (CAKI-1) was > 10 µM (inactive). For the same compound, the GI50 (CCRF-CEM) was > 10 µM (inactive), the GI50 (COLO 205) was > 10 µM (inactive) and the GI50 (DU-145) was > 10 µM (inactive). The GI50 (EKVX) was > 10 µM (inactive), the GI50 (HCC 2998) was > 10 µM (inactive) and the GI50 (HCT-15) was over 10 µM. For the same compound, the GI50 (HL-60) was 6.03 µM (inactive), the GI50 (HOP-62) was > 10 µM (inactive) and the GI50 (HT-29) was > 10 µM (inactive). The GI50 (IGROV-1) was > 10 µM (inactive), the GI50 (K562) was > 10 µM (inactive) and the GI50 (KM12) was 0.467 µM (active). The GI50 (LOX IMVI) was > 10 µM (inactive), the GI50 (M14) was > 10 µM (inactive) and the GI50 (MCF7) was 9.29 µM (inactive). For the same compound, the GI50 (MDA-N) was > 10 µM (inactive), the GI50 (MOLT-4) was 4.79 µM (inactive) and the GI50 (Malme-3M) was > 10 µM (inactive). The GI50 (NCI-H23) was 8.81 µM (inactive), the GI50 (OVCAR-8) was > 10 µM (inactive) and the GI50 (PC-3) was 4.3 µM (inactive). The GI50 (RPMI-8226) was 3.75 µM (inactive), the GI50 (SF-268) was > 10 µM (inactive) and the GI50 (SF-295) was > 10 µM (inactive). For the same compound, the GI50 (SK-MEL-28) was > 10 µM (inactive), the GI50 (SK-MEL-5) was > 10 µM (inactive) and the GI50 (SK-OV-3) was > 10 µM (inactive). For the same compound, the GI50 (SN12C) was > 10 µM (inactive), the GI50 (SNB-75) was > 10 µM (inactive) and the GI50 (SR) was 4.99 µM (inactive). The GI50 (SW-620) was > 10 µM (inactive), the GI50 (T47D) was 3.47 µM (inactive) and the GI50 (TK-10) was > 10 µM (inactive). For the same compound, the GI50 (UACC-257) was > 10 µM (inactive) and the GI50 (UACC-62) was > 10 µM (inactive).
